Test results from patent US11517571B2, “Use of kinase inhibitors to manage tuberculosis and other infectious diseases” (priority 2015, dated 2022).

What was measured:
[1] = test system: mycobacterium; experiment: Mice infected with mycobacterium, CFU in the spleen; type: in vivo; conditions: 7 days p.i., FIG. 2
Method: Mice infected with mycobacterium were administered […], rifabutin (2.5 mg/kg/day) alone, and/or a combination of both. CFU in the spleen were determined 7 days (p.i.).

[2] = in vivo
[3] = Drug concentration in the blood after administration
[4] = test system: mycobacterium; experiment: In vivo studies with animals infected with mycobacterium
[5] = test system: Mtb; experiment: Rhesus macaque latent TB reactivated by SIV; type: in vivo, Rhesus macaques; conditions: then SIV
[6] = molecular target: c-Kit (Homo sapiens, UniProt P10721); conditions: in vivo
[7] = test system: Mtb within infected macrophages; experiment: Mtb in infected macrophages: bacterial load and phagosome-to-lysosome translocation; type: cell-based

Chain of c-Kit (P10721 26-976): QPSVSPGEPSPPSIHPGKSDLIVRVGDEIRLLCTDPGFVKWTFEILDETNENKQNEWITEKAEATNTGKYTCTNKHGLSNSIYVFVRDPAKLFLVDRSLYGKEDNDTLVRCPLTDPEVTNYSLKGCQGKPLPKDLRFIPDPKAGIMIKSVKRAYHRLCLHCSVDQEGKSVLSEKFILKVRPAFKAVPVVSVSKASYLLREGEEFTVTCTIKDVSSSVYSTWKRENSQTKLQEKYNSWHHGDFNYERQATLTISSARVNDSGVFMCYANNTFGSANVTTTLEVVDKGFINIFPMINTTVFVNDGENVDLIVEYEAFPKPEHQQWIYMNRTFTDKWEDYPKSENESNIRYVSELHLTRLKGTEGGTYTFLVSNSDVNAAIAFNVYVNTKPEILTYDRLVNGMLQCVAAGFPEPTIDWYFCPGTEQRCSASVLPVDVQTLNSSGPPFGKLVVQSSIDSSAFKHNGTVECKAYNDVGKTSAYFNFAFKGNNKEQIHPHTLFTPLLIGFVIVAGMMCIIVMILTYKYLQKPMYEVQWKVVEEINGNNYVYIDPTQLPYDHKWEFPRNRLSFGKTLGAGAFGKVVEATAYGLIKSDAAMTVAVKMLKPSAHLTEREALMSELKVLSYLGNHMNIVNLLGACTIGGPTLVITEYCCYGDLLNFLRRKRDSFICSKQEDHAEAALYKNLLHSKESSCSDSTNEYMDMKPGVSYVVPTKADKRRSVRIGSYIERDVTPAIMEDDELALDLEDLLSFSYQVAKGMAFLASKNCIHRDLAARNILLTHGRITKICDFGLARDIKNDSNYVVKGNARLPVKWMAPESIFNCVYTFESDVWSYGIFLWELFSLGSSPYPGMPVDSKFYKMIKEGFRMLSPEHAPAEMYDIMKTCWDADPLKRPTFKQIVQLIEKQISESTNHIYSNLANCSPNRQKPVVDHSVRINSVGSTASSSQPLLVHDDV

| SMILES | bacterial load (CFU in the spleen) ([1]; rifabutin 2.5 mg/kg/day alone) | concentration in the blood [2] | peak concentration [3] | time to peak concentration [3] | amount of granulomatous lesions within the liver [4] | bacterial load in macrophages [4] | survival ([5]; latent infection for 6-10 weeks, daily treatment, FIG. 3B) | TB reactivation induced by SIV ([5]; latent infection) | myelopoiesis (stem cells divide and differentiate along the myeloid lineage) [6] | numbers of innate immune cells in the blood and organs [6] | bacterial load (CFU in the spleen) ([1]; 100 mg/kg/day alone) | bacterial load in macrophages ([7]; FIG. 1) | translocation of Mtb from the phagosome into the lysosome ([7]; at peak concentration in the micromolar range, depends on Abl) |
| --- | --- | --- | --- | --- | --- | --- | --- | --- | --- | --- | --- | --- | --- |
| CO[C@H]1/C=C/O[C@@]2(C)Oc3c(C)c(O)c4c(c3C2=O)C2=NC3(CCN(CC(C)C)CC3)NC2=C(NC(=O)/C(C)=C\C=C\[C@H](C)[C@H](O)[C@@H](C)[C@@H](O)[C@@H](C)[C@H](OC(C)=O)[C@@H]1C)C4=O [Rifabutin] | decrease in bacterial load | – | – | – | – | – | – | – | – | – | – | – | – |
| Cc1ccc(NC(=O)c2ccc(CN3CCN(C)CC3)cc2)cc1Nc1nccc(-c2cccnc2)n1 [imatinib, N-(4-methyl-3-((4-(pyridin-3-yl)pyrimidin-2-yl)amino)phenyl)-4-((4-methylpiperazin-1-yl)methyl)benzamide] | – | ~100 nM | micromolar range | ≤ 6 h | reduced the amount of granulomatous lesions | reduced bacterial load in macrophages | survived | prevents reactivation | encourages the stem cells to divide and differentiate along the myeloid lineage | increase | decrease in bacterial load | decreases bacterial load | induces translocation of Mtb |
